Source: PubChem BioAssay (NCI)
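How tested: cells in 96-well plates exposed to compound for 48 hours at five concentrations. Definition used: TGI = concentration required for complete inhibition of growth.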

Assays:
Test in all cases: DTP human tumour cell line panel, 48 h
TK-10 renal = test system: TK-10 renal
COLO 205 colon = test system: COLO 205 colon
SK-MEL-5 melanoma = test system: SK-MEL-5 melanoma
HOP-92 NSCLC = test system: HOP-92 NSCLC
SN12C renal = test system: SN12C renal
UACC-62 melanoma = test system: UACC-62 melanoma
HT29 colon = test system: HT29 colon
LOX IMVI melanoma = test system: LOX IMVI melanoma
SNB-19 CNS = test system: SNB-19 CNS
786-0 renal = test system: 786-0 renal
M14 melanoma = test system: M14 melanoma
NCI-H226 lung = test system: NCI-H226 lung
U251 CNS = test system: U251 CNS
CAKI-1 renal = test system: CAKI-1 renal
SF-295 CNS = test system: SF-295 CNS
A498 renal = test system: A498 renal
PC-3 prostate = test system: PC-3 prostate
SNB-75 CNS = test system: SNB-75 CNS
HS 578T breast = test system: HS 578T breast

| Compound | TGI (TK-10 renal) [µM] | TGI (COLO 205 colon) [µM] | TGI (SK-MEL-5 melanoma) [µM] | TGI (HOP-92 NSCLC) [µM] | TGI (SN12C renal) [µM] | TGI (UACC-62 melanoma) [µM] | TGI (HT29 colon) [µM] | TGI (LOX IMVI melanoma) [µM] | TGI (SNB-19 CNS) [µM] | TGI (786-0 renal) [µM] | TGI (M14 melanoma) [µM] | TGI (NCI-H226 lung) [µM] | TGI (U251 CNS) [µM] | TGI (CAKI-1 renal) [µM] | TGI (SF-295 CNS) [µM] | TGI (A498 renal) [µM] | TGI (PC-3 prostate) [µM] | TGI (SNB-75 CNS) [µM] | TGI (HS 578T breast) [µM] |
| --- | --- | --- | --- | --- | --- | --- | --- | --- | --- | --- | --- | --- | --- | --- | --- | --- | --- | --- | --- |
| CC(C)=CCC/C(C)=C/Cc1c(O)ccc2c1[nH]c1cc(O)c(C)cc12 | > 25 | > 25 | > 25 | > 25 | > 25 | > 25 | > 25 | > 25 | > 25 | > 25 | > 25 | > 25 | > 25 |  |  |  |  |  |  |
| CN(C)C(=C1c2cc([N+](=O)[O-])ccc2-c2ccc([N+](=O)[O-])cc21)N(C)C | > 100 | > 100 | > 100 |  | > 100 | > 100 | > 100 |  | > 100 | > 100 | > 100 | > 100 | > 100 | > 100 | > 100 | > 100 | > 100 | > 100 | > 100 |
| O=Cc1cc2c(o1)C(=O)c1ccccc1C2=O | 8.52 | 2.76 | 0.698 |  | 0.779 | 3.29 | 2.12 | 0.679 | 1.62 | 2.9 | 0.367 | 2.27 | 2.73 | 9.54 | 0.813 | 9.44 | 11.6 | 0.858 |  |
| OC(c1ccccc1)(c1ccccc1)c1cccnc1 | > 100 | > 100 | > 100 |  | > 100 | > 100 | > 100 | > 100 | > 100 | > 100 | > 100 | > 100 | > 100 | > 100 | > 100 | > 100 |  | > 100 |  |
| CCOC(CCCN1CCC2(CC1)C(=O)N(C)CN2c1ccccc1)(OCC)c1ccc(F)cc1 | 22.2 | 6.88 | 14.9 |  | 21.9 | 34.3 | 14 | 31 | 22.6 | 27.7 | 23.9 | 33.6 | 26.3 | 49.2 | 25.3 |  | 29.6 | 43.8 |  |
| CN1C(=O)C(O)CC1c1cccc(F)c1 (stereo not drawn) |  | > 100 | > 100 | > 100 | > 100 | > 100 | > 100 | > 100 | > 100 | > 100 | > 100 | > 100 | > 100 | > 100 | > 100 | > 100 | > 100 | > 100 |  |
| Cc1ccc(NC(=O)CC(=O)n2nc(C)c(N=Nc3ccc(S(=O)(=O)CCOS(=O)(=O)O)cc3)c2C)cc1 | > 100 | > 100 | > 100 |  |  | > 100 | > 100 | > 100 | > 100 | > 100 | > 100 | > 100 | > 100 |  | > 100 | > 100 | > 100 | > 100 | > 100 |
| CN1CN(c2ccccc2)C2(CCN(CCCC(=O)c3cccs3)CC2)C1=O | 87.6 | 47.7 | 65 |  | > 100 | > 100 | 73.6 | > 100 | > 100 | > 100 | > 100 | > 100 | > 100 | > 100 | 85.6 |  | > 100 | > 100 |  |
| CC1=CCS(=O)(=O)C1C(O)C1=C(C)CCCC1(C)C (stereo not drawn) | > 100 | > 100 | > 100 |  | > 100 | > 100 | > 100 | > 100 | > 100 | > 100 | > 100 | > 100 | > 100 | > 100 | > 100 | > 100 | > 100 | > 100 |  |
| O=C(CC(C(=O)c1ccsc1)c1ccccc1)c1cccs1 (stereo not drawn) | > 100 | > 100 | > 100 | > 100 | > 100 | > 100 | > 100 |  |  | > 100 | > 100 | > 100 | > 100 | > 100 | > 100 | > 100 |  | > 100 | > 100 |
| CC1CC/C(=C\c2ccc(N(C)C)cc2)C(=O)/C1=C/c1ccc(N(C)C)cc1 (stereo not drawn) | > 100 | > 100 | > 100 |  | > 100 | > 100 | > 100 | > 100 |  | > 100 | > 100 | > 100 | > 100 | > 100 | > 100 | > 100 | > 100 | > 100 |  |
| C=CC12CN(C)C3C4COC(CC41)C1(C(=O)Nc4ccccc41)C32 (stereo not drawn) |  | > 200 | > 200 | > 200 | > 200 | > 200 | > 200 | > 200 | > 200 |  |  | > 200 | > 200 | > 200 | > 200 | > 200 |  | > 200 |  |
| O=C(NCCNCCO)N/N=C/c1ccc([N+](=O)[O-])cc1 | > 100 | > 100 | > 100 |  | > 100 | > 100 | > 100 |  | > 100 | > 100 | > 100 | > 100 | > 100 | > 100 | > 100 | > 100 | > 100 | 98.5 | > 100 |
| CC(Oc1ccc(OCC2CCCCC2)cc1)C(=O)N(CCO)CCO (stereo not drawn) | > 100 |  | > 100 |  | > 100 | > 100 | > 100 | > 100 | > 100 | > 100 | > 100 | > 100 | > 100 |  | > 100 | > 100 |  | > 100 |  |
| CC(=O)O[C@]12CCC[C@H]1C1(O)C(O)CCC[C@H]12 (stereo partly drawn) | > 100 | > 100 | > 100 |  | > 100 | > 100 | > 100 | > 100 | > 100 | > 100 | > 100 | > 100 | > 100 |  | > 100 |  |  | > 100 |  |
| CC(CCc1ccc2c(c1)c(=N)c1ccc(N)cc1n2O)CC(C)(C)C (stereo not drawn) | 3.29 | 2.79 | 3.01 |  | 3.22 | 2.79 |  | 3.07 |  | 2.82 | 3.18 |  | 2.67 | 3.19 | 7.29 | 3.51 |  |  |  |
| Cn1c(=O)nc2n(-c3ccc(Cl)cc3Cl)c3ccccc3nc-2c1=O | 54.2 | 8.73 | 3.36 | 9.24 |  | 6.16 | 10.3 |  | 26.5 |  | 4.58 |  | 19 | 13.2 | 10.6 |  |  |  |  |
| O=C(Nc1ccc([N+](=O)[O-])cc1)C(=O)C(C(=O)c1ccccc1F)C1OC(=O)c2ccccc21 (stereo not drawn) | > 100 | 68 | > 100 | > 100 | > 100 | > 100 | > 100 | 60.7 | > 100 |  | > 100 | 59.8 | 39.9 | > 100 | > 100 | > 100 |  | 96.4 |  |
| CC(=O)Nc1ccc(N2C(=O)/C(=C\c3cccc(Oc4ccccc4)c3)SC2c2ccccc2)cc1 (stereo not drawn) | > 100 | > 100 | 68.6 | 40.2 | 97 | > 100 |  | 34.3 | 48.5 | > 100 | > 100 | > 100 | 30.4 | > 100 | > 100 | > 100 |  |  | 66.3 |
| CCOC(=O)C(O)(NC(=O)Nc1ccc(F)cc1)C(F)(F)F (stereo not drawn) | > 100 | > 100 | > 100 |  | > 100 |  | > 100 | > 100 | > 100 | > 100 | > 100 |  | > 100 | > 100 |  | > 100 | > 100 | > 100 | > 100 |
| COC(=O)[C@@]12OC[C@]34C([C@@H](O)C1O)[C@@]1(C)CC(=O)C(O)=C(C)C1C[C@H]3OC(=O)[C@H](OC(=O)CC(C)C(F)(F)F)[C@H]42 (stereo partly drawn) | 1.29 | 0.415 | 0.0731 | 0.131 | 0.911 | 0.0629 | 0.146 |  | 0.108 | 0.708 | 0.124 | 0.0338 | 0.214 | 1.07 | 0.191 | 0.121 |  | 0.187 |  |
| CCOC(=O)CN1CCSC1=NC#N |  | > 100 | > 100 | > 100 | > 100 | > 100 | > 100 | > 37.6 | > 100 |  |  | > 100 | > 100 | > 100 | > 42.7 | > 100 |  | > 100 |  |
| CSCC[C@H]1C(=O)N=C(N)N1C(=O)OCc1ccccc1 | > 100 | 39.7 | > 100 |  | > 100 | 63.9 | > 100 | > 100 | > 100 | > 100 |  | 84.1 | > 100 | 44.3 | > 100 | > 100 | > 100 | > 100 | 49.9 |
